Measured values from patent US12006330B2, “Substituted macrocyclic compounds and related methods of treatment” (Alkermes, Inc., priority 2020, dated 2024).

Key:
Type in all cases: in vitro ADME
[1] = test system: MDR1; experiment: MDCK-MDR1 permeability assay; conditions: dog, MDCK-MDR1, MDCK-MDR1 cells; for efflux ratio at 2 h, 3 μM: Papp B→A divided by Papp A→B, read-out: Efflux ratio (ER); for Papp A→B at 2 h, 3 μM: test compound 3 μM, 2 hours at 37 degrees C, apical to basolateral
Procedure: The bidirectional permeability (Apical to Basal and Basal to Apical directions) of test compounds in MDCK-MIDR1 cells were evaluated using MDCK-MIDR1 cells seeded in Solvo PreadyPort™ MDCK 96-well plate. Once the plate was received from ReadyCell (Barcelona, Spain), it was treated as per PreadyPort™ user's manual.
For the Apical to Basolateral (A→B) permeability, 80 μL of test compound (3 μM) co-dosed with LY (Lucifer Yellow) (100 μM) in HBSS (Hank's Balanced Salt Solution) assay buffer was added to the donor side (A) while 250 μL of HBSS buffer was added to the receiver side (B). For the Basolateral to Apical (B→A) permeability, 255 μL of test compound (3 μM) in HBSS assay buffer was added to the donor side (B) while 75 μL of HBSS buffer containing LY (100 μM) was added to the receiver side (A).
The plate was placed in an incubator set at 37 degrees C. After 10 minutes of pre-warming, 5 μL aliquot was taken from donor compartment and set aside as the dosing solution. The MDCK-MDR1 incubation plate was placed back into the incubator for 2 hours of incubation at 37 degrees C. After 2 hours of incubation, 25 μL and 5 μL aliquots were removed from the receiver and donor sides, respectively. To the 5 μL aliquots taken from the donor sides (before and after a 2-hour incubation) were diluted with 20 μL of the HBSS buffer. All samples were mixed with 150 μL with acetonitrile containing internal standard (IS) and 200 μL water, and analyzed by LC-MS/MS.
The apparent permeability (Papp) was calculated using the following formula: Papp=dQ/dt×1/A×C0 where: • dQ/dt: amount of translocated material over incubation time (nmol/s) • A: area of insert (0.14 cm^2 for PreadyPort™ MDR1-96) • C0: initial concentration of product applied in apical (A→B) or basal (B→A) compartment (nmol/mL)
The efflux ratio (ER) was measured by dividing the Papp (basolateral to apical direction) by Papp (apical to basolateral direction). It is a general measure of the involvement of active processes. An ER>2 is considered positive for active transport.
Percent recovery was measured using the following equation:
[formula] where: • VR: Volume of the receiver compartment (mL) • VD: Volume of the donor compartment (mL) • CN: Concentration of dosing solution (μM) collected after 10 minutes of incubation • CR^final: Receiver concentration at the end of the incubation (μM) • CD^final: Donor concentration at the end of the incubation (μM)
The data reported in Table 3 were obtained according to the MDCK-MDR1 permeability assay described above.

[2] = Hepatocytes stability assay (human hepatocytes); conditions: both sexes, human, cryopreserved hepatocytes, cryopreserved human hepatocytes (pool of 50 mixed gender); 1 μM test compound; 1×10^6 cell/mL; 37 degrees C; read-out: CLint (μL/min/million cells)
Procedure: (§1) In vitro metabolic stability was assessed using cryopreserved hepatocytes from male Sprague Dawley rats and a pool of 50 mixed gender humans (BioIVT, Baltimore, MD). The incubation mixtures were prepared by mixing 250 μL of pre-warmed KHB (Krebs-Henseleit buffer) containing 2×10^6 cell/mL of hepatocytes with 250 μL of pre-warmed KHB buffer containing 2 μM of test compounds in a 48-well plate, giving a final concentration of 1 μM test compound (0.1% DMSO) and 1×10^6 cell/mL of hepatocytes. The reaction mixture was incubated at 37 degrees C. A 50 μL aliquot of incubation mixture was taken at time points (0, 15, 30, 60, 120 and 240 minutes) and transferred into a 96-well plate containing 300 μL ice-cold acetonitrile (containing 30 ng/mL of labetalol and 10 ng/mL of Naltrexone-d3 as internal standards) and immediately placed in ice to terminate the reaction. Samples were centrifuged, and supernatants were transferred into 96-well plates for liquid chromatography with tandem mass spectrometry (LC-MS/MS) analysis to monitor the depletion of the test compound.
(§2) Data was calculated as percent remaining by assuming zero-minute time point peak area ratio (analyte/IS) as 100% and dividing remaining time point peak area ratios by zero-minute time point peak area ratio. Data were fitted to a first-order decay model to determine half-life. From a plot of log (ln) peak area against time, the slope of the line was determined. Subsequently, half-life (T1/2) and intrinsic clearance (CLint) were calculated using the equations below: Elimination rate constant (k)=(−slope) Half-life (T1/2) min=0.693/k Intrinsic Clearance (CLint) (mL/min/million cells)=(V×0.693)/T1/2 V=incubation volume mL/number of cells The in vitro T1/2 was converted to in vitro intrinsic clearance (CLint,hep) in units of mL/min/kg using the formula shown below:
(§3) [formula] The in vitro intrinsic clearance (CLint,hep) was scaled to in vivo hepatic clearance (CL,hep) using the following equation which was adapted from a well-stirred model.
(§4) [formula] where Q is the liver blood flow and fu is the fraction unbound (assumed to be unity in this case). All parameters used in the calculation are shown below (Table 4).
(§5) The extraction ratio (ER) was calculated by dividing the hepatic clearance of a compound to the liver blood flow. The data reported in Table 5 were obtained according to the human hepatocytes stability assay described above.

[3] = test system: human hepatocytes; experiment: Hepatocytes stability assay (human hepatocytes); conditions: human hepatocytes; scaled hepatic clearance divided by liver blood flow (well-stirred model, fu assumed unity)
Procedure: as §1, §2, §3, §4, §5

Structure (SMILES)	efflux ratio at 2 h, 3 μM [1]	Papp A→B at 2 h, 3 μM [1] [×10⁻⁶ cm/s]	hepatocyte CLint at 1 μM [2] [µL/min/1e6 cells]	Extraction Ratio (ER) [3]
O=C1COc2ccccc2[C@H]2CC[C@H](CC2)OCC2[C@@H](NS(=O)(=O)CC3CCC3)CCCN12 (stereo in doubt) [Compound 43]	10	0.96	55	0.89
Cc1cccc2c1OCC(=O)N1CCC[C@H](NS(C)(=O)=O)C1CO[C@H]1CC[C@@H]2CC1 (stereo in doubt) [Compound 37]	> 100	0.23	24	0.78
CC(C)S(=O)(=O)N[C@H]1CCCN2C(=O)COc3ncc(Cl)cc3[C@H]3CC[C@H](CC3)OCC12 (stereo in doubt) [Compound 35]	81	0.35	16	0.70
O=C1COc2nnccc2[C@H]2CC[C@H](CC2)OCC2[C@@H](NS(=O)(=O)C3CC3)CCCN12 (stereo in doubt) [Compound 67]	63	< 0.036	2.5	0.27
C=CS(=O)(=O)N[C@H]1CCCN2C(=O)COc3ccccc3C3CCC(CC3)OC[C@@H]12 (stereo in doubt) [Compound 5]	29	1.3	22	0.77
Cc1cccc2c1C1CCC(CC1)OC[C@H]1[C@@H](NS(=O)(=O)C3CC3)CCCN1C(=O)CO2 (stereo in doubt) [Compound 4]	31	0.66	29	0.81
Cc1cccc2c1OCCN1CCC[C@H](NS(C)(=O)=O)C1CO[C@H]1CC[C@@H]2CC1 (stereo in doubt) [Compound 49]	0.73	8.6	58	0.90
Cc1ccc2c(c1C)[C@H]1CC[C@H](CC1)OCC1[C@@H](NS(=O)(=O)C3CC3)CCCN1C(=O)CO2 (stereo in doubt) [Compound 77]	27	0.79	12	0.63
O=S(=O)(N[C@H]1CCCN2CCOc3ncccc3[C@H]3CC[C@H](CC3)OCC12)C1CC1 (stereo in doubt) [Compound 63]	1.4	7.5	44	0.87
Cc1ccc2c(c1)C1CCC(CC1)OC[C@H]1[C@@H](NS(=O)(=O)C(C)C)CCCN1C(=O)CO2 (stereo in doubt) [Compound 18]	19	0.83	5.8	0.46
O=C1COc2ccccc2C2CCC(CC2)OC[C@H]2[C@@H](NS(=O)(=O)C(F)F)CCCN12 (stereo in doubt) [Compound 7]	22	1.4	19	0.74
Cc1ccc2c(c1)OCCN1CCC[C@H](NS(C)(=O)=O)C1CO[C@H]1CC[C@@H]2CC1 (stereo in doubt) [Compound 50]	0.76	9.6	61	0.90
Cc1ncnc2c1[C@H]1CC[C@H](CC1)OCC1[C@@H](NS(=O)(=O)C(C)C)CCCN1C(=O)CO2 (stereo in doubt) [Compound 69]	> 100	< 0.041	3.4	0.34
O=C1COc2ccccc2[C@H]2CC[C@H](CC2)OCC2[C@@H](NS(=O)(=O)C3CCC3)CCCN12 (stereo in doubt) [Compound 42]	7.4	0.92	36	0.84
CS(=O)(=O)N[C@H]1CCCN2C(=O)COc3cc(C#N)ccc3[C@H]3CC[C@H](CC3)OCC12 (stereo in doubt) [Compound 47]	> 100	0.19	4.3	0.39
O=C1COc2ccc(Cl)cc2C2CCC(CC2)OC[C@H]2[C@@H](NS(=O)(=O)C3CC3)CCCN12 (stereo in doubt) [Compound 16]	> 100	0.2	6.1	0.47
O=C1COc2ccccc2[C@H]2CC[C@H](CC2)OCC2[C@@H](NS(=O)(=O)C3COC3)CCCN12 (stereo in doubt) [Compound 80]	51	0.79	11	0.63
O=C1COc2ncccc2C2CCC(CC2)OC[C@H]2[C@@H](NS(=O)(=O)C3CC3)CCCN12 (stereo in doubt) [Compound 14]	> 100	0.3	20	0.75
CC1(S(=O)(=O)N[C@H]2CCCN3CCOc4ccccc4[C@H]4CC[C@H](CC4)OCC23)CC1 (stereo in doubt) [Compound 58]	7.5	1.4	55	0.89
Cc1ncnc2c1[C@H]1CC[C@H](CC1)OCC1[C@@H](NS(C)(=O)=O)CCN1C(=O)CO2 (stereo in doubt) [Compound 82]	59	0.58	< 1.9	<0.22
